Values quoted from earlier work as cited in PMC9851200, “Multiparameter phenotypic screening for endogenous TFEB and TFE3 translocation identifies novel chemical series modulating lysosome function” (Autophagy, 2022).

Legend:
Set-up in all cases: method as in original PKIS2 published data
[1] = molecular target: T1, kinases (KINOMEscan panel) (Homo sapiens, UniProt Q8N568); conditions: Published KINOMEscan; ref original PKIS2 published data; cited from earlier work
T1 sequence (Q8N568 1-766): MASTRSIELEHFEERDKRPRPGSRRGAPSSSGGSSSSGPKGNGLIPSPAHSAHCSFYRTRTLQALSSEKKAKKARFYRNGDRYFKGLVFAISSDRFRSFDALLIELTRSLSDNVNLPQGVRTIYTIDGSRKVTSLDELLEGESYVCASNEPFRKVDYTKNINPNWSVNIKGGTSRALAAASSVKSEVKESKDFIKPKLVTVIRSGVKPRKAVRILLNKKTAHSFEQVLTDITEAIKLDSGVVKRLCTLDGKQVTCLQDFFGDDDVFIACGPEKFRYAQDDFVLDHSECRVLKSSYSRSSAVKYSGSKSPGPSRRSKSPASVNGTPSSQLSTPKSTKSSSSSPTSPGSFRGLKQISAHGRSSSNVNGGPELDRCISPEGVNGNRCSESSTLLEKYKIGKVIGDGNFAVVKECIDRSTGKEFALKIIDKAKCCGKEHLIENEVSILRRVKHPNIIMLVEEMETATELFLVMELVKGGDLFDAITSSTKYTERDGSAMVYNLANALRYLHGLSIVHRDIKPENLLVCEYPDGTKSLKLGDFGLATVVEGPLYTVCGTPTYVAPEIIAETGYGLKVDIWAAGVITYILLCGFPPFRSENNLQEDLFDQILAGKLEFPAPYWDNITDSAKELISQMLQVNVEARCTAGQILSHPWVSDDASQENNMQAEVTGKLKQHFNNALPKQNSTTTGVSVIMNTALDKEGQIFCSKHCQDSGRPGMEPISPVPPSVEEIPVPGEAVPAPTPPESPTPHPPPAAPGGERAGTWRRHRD

[2] = molecular target: kinases (KINOMEscan panel) (Homo sapiens, UniProt P06213); conditions: kinase INSR; Published KINOMEscan; ref original PKIS2 published data; cited from earlier work
[3] = molecular target: T2, kinases (KINOMEscan panel) (Homo sapiens, UniProt Q92630); conditions: DYRK2; Published KINOMEscan; ref original PKIS2 published data; cited from earlier work
T2 sequence (Q92630 1-601): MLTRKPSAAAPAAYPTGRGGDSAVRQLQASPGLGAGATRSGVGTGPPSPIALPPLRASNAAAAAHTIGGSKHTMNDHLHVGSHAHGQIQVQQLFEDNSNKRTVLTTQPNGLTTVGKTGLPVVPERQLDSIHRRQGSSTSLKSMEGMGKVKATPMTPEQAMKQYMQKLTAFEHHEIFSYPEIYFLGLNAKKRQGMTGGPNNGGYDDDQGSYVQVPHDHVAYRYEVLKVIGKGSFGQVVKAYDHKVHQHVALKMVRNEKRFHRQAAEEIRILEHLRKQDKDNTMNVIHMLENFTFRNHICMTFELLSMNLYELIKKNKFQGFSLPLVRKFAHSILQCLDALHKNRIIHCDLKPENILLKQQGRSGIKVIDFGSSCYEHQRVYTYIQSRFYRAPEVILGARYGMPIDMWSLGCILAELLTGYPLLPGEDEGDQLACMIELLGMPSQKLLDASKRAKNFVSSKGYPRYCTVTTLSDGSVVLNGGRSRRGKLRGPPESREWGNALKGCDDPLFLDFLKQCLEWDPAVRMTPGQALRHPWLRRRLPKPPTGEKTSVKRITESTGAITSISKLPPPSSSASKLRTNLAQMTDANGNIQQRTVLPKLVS

[4] = molecular target: kinases (KINOMEscan panel) (Homo sapiens, UniProt P53671); conditions: LIMK2; Published KINOMEscan; ref original PKIS2 published data; cited from earlier work
[5] = molecular target: kinases (KINOMEscan panel) (Homo sapiens, UniProt Q9NQU5); conditions: PAK6; Published KINOMEscan; ref original PKIS2 published data; cited from earlier work
[6] = molecular target: kinases (KINOMEscan panel) (Homo sapiens, UniProt P06239); conditions: LCK; Published KINOMEscan; ref original PKIS2 published data; cited from earlier work
[7] = molecular target: kinases (KINOMEscan panel) (Homo sapiens, UniProt P78368); conditions: kinase CSNK1G2; Published KINOMEscan; ref original PKIS2 published data; cited from earlier work
[8] = molecular target: T3, kinases (KINOMEscan panel) (Homo sapiens, UniProt Q9Y616); conditions: IRAK3; Published KINOMEscan; ref original PKIS2 published data; cited from earlier work
T3 sequence (Q9Y616 1-596): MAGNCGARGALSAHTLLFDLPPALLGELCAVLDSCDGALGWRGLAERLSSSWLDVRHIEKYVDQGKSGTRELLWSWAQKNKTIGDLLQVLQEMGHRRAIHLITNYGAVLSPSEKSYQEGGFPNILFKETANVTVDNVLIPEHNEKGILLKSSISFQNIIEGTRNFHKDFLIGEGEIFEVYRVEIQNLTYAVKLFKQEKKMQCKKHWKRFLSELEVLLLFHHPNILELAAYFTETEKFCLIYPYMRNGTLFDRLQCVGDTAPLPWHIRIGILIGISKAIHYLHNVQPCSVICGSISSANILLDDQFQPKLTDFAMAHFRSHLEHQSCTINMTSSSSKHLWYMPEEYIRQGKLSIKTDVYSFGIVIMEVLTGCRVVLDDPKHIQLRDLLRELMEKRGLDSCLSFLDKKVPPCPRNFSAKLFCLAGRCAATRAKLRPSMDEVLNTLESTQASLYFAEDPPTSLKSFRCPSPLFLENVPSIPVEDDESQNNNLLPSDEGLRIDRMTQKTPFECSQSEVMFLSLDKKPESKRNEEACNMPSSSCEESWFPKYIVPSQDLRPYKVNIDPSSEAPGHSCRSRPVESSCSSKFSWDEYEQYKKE

Chain of kinases (KINOMEscan panel) (Homo sapiens, UniProt P53671) (P53671 whole entry): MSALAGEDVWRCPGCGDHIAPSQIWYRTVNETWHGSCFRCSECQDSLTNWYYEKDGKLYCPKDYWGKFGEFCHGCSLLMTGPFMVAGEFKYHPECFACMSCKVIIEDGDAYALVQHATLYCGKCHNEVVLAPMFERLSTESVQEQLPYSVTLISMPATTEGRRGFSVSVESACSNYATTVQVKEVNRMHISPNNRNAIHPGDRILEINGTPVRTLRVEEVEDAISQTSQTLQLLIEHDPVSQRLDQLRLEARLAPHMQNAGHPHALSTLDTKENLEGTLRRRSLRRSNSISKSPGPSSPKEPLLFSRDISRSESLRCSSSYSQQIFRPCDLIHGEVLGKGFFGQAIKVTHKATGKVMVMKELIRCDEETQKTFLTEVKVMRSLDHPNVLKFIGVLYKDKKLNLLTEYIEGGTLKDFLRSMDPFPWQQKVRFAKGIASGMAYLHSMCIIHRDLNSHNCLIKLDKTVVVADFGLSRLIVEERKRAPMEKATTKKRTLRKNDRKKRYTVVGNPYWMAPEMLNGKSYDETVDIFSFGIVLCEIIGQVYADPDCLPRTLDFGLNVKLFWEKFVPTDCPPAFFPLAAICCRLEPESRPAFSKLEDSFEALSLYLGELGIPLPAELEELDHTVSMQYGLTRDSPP
Chain of kinases (KINOMEscan panel) (Homo sapiens, UniProt Q9NQU5) (Q9NQU5 whole entry): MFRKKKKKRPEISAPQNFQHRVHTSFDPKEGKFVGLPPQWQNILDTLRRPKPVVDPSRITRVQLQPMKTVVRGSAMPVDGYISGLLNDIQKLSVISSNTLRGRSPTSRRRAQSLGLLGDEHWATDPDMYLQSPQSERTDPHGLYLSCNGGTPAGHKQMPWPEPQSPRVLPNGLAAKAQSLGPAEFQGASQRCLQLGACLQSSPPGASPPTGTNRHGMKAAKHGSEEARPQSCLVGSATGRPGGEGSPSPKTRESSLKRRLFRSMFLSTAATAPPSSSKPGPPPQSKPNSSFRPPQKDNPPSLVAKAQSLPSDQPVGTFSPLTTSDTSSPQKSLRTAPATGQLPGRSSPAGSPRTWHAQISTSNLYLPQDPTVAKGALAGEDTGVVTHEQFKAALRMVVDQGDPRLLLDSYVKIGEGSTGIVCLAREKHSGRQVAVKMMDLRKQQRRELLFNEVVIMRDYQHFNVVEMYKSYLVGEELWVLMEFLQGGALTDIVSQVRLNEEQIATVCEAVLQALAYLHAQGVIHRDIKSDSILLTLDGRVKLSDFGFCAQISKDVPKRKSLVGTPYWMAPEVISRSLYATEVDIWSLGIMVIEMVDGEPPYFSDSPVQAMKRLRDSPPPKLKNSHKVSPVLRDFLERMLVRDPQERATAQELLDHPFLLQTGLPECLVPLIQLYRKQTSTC
Chain of kinases (KINOMEscan panel) (Homo sapiens, UniProt P06239) (P06239 whole entry): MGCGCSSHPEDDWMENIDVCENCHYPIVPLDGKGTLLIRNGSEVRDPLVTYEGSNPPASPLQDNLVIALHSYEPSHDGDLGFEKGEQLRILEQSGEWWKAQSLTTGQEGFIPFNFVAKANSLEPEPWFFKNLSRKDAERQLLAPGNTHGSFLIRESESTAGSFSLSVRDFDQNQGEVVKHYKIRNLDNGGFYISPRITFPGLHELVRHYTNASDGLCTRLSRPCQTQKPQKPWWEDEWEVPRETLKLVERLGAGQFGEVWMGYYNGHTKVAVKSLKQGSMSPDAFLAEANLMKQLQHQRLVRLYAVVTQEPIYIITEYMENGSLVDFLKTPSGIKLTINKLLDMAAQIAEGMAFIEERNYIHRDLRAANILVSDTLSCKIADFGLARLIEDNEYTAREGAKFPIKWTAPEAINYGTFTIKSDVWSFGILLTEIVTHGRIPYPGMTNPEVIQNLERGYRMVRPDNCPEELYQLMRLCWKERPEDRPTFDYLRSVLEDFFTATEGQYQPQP
Chain of kinases (KINOMEscan panel) (Homo sapiens, UniProt P78368) (P78368 whole entry): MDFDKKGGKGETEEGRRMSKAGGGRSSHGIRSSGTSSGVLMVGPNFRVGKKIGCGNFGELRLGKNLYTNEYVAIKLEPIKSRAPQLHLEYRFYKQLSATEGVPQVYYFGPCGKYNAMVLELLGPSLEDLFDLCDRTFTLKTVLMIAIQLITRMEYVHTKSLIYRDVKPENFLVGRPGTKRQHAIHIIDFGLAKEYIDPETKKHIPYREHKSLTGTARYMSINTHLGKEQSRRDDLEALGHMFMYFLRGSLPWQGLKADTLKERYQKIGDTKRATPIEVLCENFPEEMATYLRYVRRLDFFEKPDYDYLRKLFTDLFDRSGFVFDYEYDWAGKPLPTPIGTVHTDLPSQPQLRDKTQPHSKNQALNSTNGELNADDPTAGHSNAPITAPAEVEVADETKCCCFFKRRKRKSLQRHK
Chain of kinases (KINOMEscan panel) (Homo sapiens, UniProt P06213) (P06213 28-1382): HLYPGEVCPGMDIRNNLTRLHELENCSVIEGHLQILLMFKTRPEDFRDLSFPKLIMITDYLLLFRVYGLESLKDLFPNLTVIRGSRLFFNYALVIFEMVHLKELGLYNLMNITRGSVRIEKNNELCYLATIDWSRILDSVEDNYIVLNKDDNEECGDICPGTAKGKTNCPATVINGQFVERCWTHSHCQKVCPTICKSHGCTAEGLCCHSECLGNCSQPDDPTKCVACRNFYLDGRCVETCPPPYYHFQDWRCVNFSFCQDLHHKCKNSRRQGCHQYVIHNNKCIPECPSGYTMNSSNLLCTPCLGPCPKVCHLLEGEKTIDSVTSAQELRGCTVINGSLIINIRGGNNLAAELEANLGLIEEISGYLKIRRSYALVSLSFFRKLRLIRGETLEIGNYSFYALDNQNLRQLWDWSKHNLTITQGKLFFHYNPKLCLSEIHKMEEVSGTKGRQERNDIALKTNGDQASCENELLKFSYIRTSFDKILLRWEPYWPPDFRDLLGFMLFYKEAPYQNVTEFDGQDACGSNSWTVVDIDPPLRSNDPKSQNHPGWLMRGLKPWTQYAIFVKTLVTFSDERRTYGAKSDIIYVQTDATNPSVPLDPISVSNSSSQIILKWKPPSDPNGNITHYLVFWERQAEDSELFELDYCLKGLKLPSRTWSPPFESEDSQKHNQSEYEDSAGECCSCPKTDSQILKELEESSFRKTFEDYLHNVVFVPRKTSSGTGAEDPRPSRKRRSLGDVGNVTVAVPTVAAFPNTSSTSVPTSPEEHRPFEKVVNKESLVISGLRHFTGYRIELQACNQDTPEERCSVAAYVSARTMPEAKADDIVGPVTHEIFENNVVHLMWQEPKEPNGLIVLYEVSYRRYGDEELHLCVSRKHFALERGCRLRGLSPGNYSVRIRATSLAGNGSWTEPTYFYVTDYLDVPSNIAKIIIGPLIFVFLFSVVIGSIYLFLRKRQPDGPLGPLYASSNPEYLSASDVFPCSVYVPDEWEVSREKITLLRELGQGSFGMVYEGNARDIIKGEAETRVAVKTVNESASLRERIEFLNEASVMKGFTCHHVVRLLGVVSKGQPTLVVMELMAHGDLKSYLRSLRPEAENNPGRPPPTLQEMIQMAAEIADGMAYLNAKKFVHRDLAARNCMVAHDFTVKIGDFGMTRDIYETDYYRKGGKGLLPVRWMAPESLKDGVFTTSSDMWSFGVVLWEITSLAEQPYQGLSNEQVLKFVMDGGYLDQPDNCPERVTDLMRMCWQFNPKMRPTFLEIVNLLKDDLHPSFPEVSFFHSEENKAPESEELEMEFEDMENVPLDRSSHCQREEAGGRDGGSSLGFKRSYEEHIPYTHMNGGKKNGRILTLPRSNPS

## Cc1cccc(-c2nc(Nc3ccncc3)c3ccccc3n2)n1 [NK215]
[1]
  KINOMEscan DCLK2: 0
[2]
  KINOMEscan INSR: 7
[3]
  KINOMEscan DYRK2: 0
[4]
  KINOMEscan LIMK2: 5
[5]
  KINOMEscan PAK6: 3
[6]
  KINOMEscan LCK: 9
[7]
  KINOMEscan CSNK1G2: 20
[8]
  KINOMEscan IRAK3: 21
